Experimental data: US12377083B2 (WUHAN LL SCIENCE AND TECHNOLOGY DEVELOPMENT CO., LTD., priority 2019, dated 2025)

Columns and labels:
[1] = In vitro metabolic stability, human liver microsomes; assay type: in vitro ADME; conditions: 1 mg/mL liver microsome protein, 37° C., read-out: Metabolism in human liver microsome T½ min
Protocol: (§1) The in vitro metabolic stability of the compounds disclosed herein was determined through incubation of liver microsomes of various species. A proper amount of test compound was added into a liver microsome reaction system (1 mg/mL liver microsome protein, 25 U/mL glucose-6 phosphate dehydrogenase, 1 mM NADP, 6 mM D-glucose 6-phosphate and 5 mM MgCl2), and then the mixture was incubated in a water bath kettle at 37° C. to start reaction. At each time point, 100 μL of the reaction system was added into a centrifuge tube containing 400 μL of internal standard working solution (containing a 200 ng/mL solution of dexamethasone, diclofenac, tolbutamide and labetalol in acetonitrile) precooled at 0° C. so as to stop the reaction, and the mixture was then centrifuged at 10,000 g for 10 min at 4° C. The supernatant was collected for LC-MS assay so as to obtain the values of in vitro metabolic half-life of the test compounds in liver microsomes of various species.

[2] = In vitro metabolic stability, mouse liver microsomes; assay type: in vitro ADME; conditions: 1 mg/mL liver microsome protein, 37° C., read-out: Metabolism in mouse liver microsome T½ min
Protocol: as §1

[3] = In vitro cytotoxicity assay in HepG2 cells, CCK-8 method; assay type: cell-based; conditions: human
In short: (§2)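 Cells plated at 50,000/well, grown overnight to 80-90% confluence, then given fresh medium with graded compound or DMSO for 48 h at 37°C, 5% CO2. After PBS washes, CCK-8 added for 1.5 h at 37°C in the dark; OD450 read and CC50 calculated.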

[4] = molecular target: hLPAR1 (human lysophosphatidic acid receptor 1) (Homo sapiens, UniProt Q92633); assay: FLIPR assay of intracellular calcium increase induced by activation of hLPAR1 expressed in CHO-K1 cells; assay type: cell-based; conditions: CHO-K1 cells expressing hLPAR1, agonist oleoyl-L-α-lysophosphatidic acid 1 μM; read-out: LPAR1 IC50
hLPAR1 (human lysophosphatidic acid receptor 1), sequence (Q92633 whole entry): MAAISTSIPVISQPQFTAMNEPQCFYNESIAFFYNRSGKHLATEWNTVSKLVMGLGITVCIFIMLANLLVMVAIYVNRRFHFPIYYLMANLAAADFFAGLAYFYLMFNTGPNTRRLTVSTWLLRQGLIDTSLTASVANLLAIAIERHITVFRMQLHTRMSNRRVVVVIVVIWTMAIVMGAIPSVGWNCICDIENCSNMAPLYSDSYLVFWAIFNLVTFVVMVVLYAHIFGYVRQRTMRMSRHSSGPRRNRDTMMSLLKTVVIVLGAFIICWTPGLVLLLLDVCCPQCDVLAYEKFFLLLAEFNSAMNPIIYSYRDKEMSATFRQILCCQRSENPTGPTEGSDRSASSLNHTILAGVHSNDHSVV
In short: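 CHO-K1 cells expressing hLPAR1 were loaded with Fluo-4 AM for 1.0 h at 37° C, then preincubated 30 min at room temperature with compound. Oleoyl-LPA was added at 1 μM final, and calcium fluorescence was recorded by FLIPR for 2 min at 1-s intervals to assess antagonism.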

[5] = In vitro metabolic stability, rat liver microsomes; assay type: in vitro ADME; conditions: 1 mg/mL liver microsome protein, 37° C., read-out: Metabolism in rat liver microsome T½ min
Protocol: as §1

[6] = tested on: A2058 (human melanoma cells); assay: A2058 cell scratch (migration) assay with LPA; assay type: cell-based; conditions: 10 μM LPA, scratch area at 24 h
HepG2 cells = assay: In vitro cytotoxicity assay in HepG2 cells, CCK-8 method; assay type: cell-based; conditions: 48 h
In short: as §2

half-life [1] [min]	half-life [2] [min]	IC50 [4] [µM]	half-life [5] [min]	Structure (SMILES)	CC50 at 48 h [3] [µM]	Cell migration inhibition rate (%) [6]	CC50 (HepG2 cells) [µM]
> 30	> 30	< 0.05	~30	CN(C(=O)OCc1c(-c2ccc(O[C@H]3CCC[C@H](C(=O)O)C3)c(F)n2)cnn1C)C1CCCC1 (racemic) [Compound 62, (+/−)-(1S,3S)-3-((6-(5-(((cyclopentyl(methyl)carbamoyl)oxy)methyl)-1-methyl-1H-pyrazol-4-yl)-2-fluoropyridin-3-yl)oxy)cyclohexane-1-carboxylic Acid]	> 200	A (A: 50-70%)	–
–	–	0.3 to 10	–	CN(C(=O)OCc1c(-c2ccc(O[C@H]3CCC[C@H](C(=O)O)C3)cn2)ncn1C)C1CCCC1 (racemic) [Compound 19, (+/−)-(1S,3S)-3-((6-(5-(((cyclopentyl(methyl)carbamoyl)oxy)methyl)-1-methyl-1H-imidazol-4-yl)pyridin-3-yl)oxy)cyclohexane-1-carboxylic Acid]	–	C (C: 0-30%)	> 200
> 30	> 30	0.3 to 10	> 30	CN(C(=O)OCc1ocnc1-c1ccc(O[C@H]2CCC[C@H](C(=O)O)C2)c(F)c1)C1CCCC1 (racemic) [Compound 15, (+/−)-(1S,3S)-3-(4-(5-(((cyclopentyl(methyl)carbamoyl)oxy)methyl)oxazol-4-yl)-2-fluorophenoxy)cyclohexane-1-carboxylic Acid]	> 200	C (C: 0-30%)	–
> 30	> 30	< 0.05	> 30	CN(C(=O)OCc1c(-c2ccc(O[C@H]3CCC[C@H](C(=O)O)C3)c(F)c2)cnn1C)C1CCCC1 (racemic) [Compound 20, (+/−)-(1S,3S)-3-(4-(5-(((cyclopentyl(methyl)carbamoyl)oxy)methyl)-1-methyl-1H-pyrazol-4-yl)-2-fluorophenoxy)cyclohexane-1-carboxylic Acid]	> 200	B (B: 30-50%)	–
449	3670	0.05 to 0.3	57.5	CN(C(=O)OCc1c(-c2ccc(O[C@H]3CCC[C@H](C(=O)O)C3)c(CF)n2)cnn1C)C1CCCC1 (racemic) [Compound 89]	14.3	A (A: 50-70%)	–
